Tests used:
pancreatic progenitors = assay: Beta cell differentiation from human pluripotent stem cells, flow cytometry of C-peptide and NKX6.1 positive cells; format: cell-based; settings: for effectiveness to induce differentiation of pancreatic progenitors to C-peptide positive cells, comparison within panel: day 27; for percentage / number of C-peptide positive cells compared to control: end of differentiation on day 27, compounds added day 15 to day 27
Experimental: Beta cells differentiated from human pluripotent stem cell lines as described in Example 2 (Sui et al., 2018b). Indicated compounds that function as cell cycle inhibitors were added individually from day 15 to day 27 with concentration listed below:
The DNA replication inhibitors used in this study: 0.1 μM, 0.5 μM and 1 μM Aphidicolin (A0781, Sigma-Aldrich); 2.5 μM Cisplatin (232120, EMD Millipore); 100 μM Ciprofloxacin (S2027, Selleck Chemicals); 10 μM Pyridostatin (S7444, Selleck Chemicals); 10 μM E2F Inhibitor (324461, EMD Millipore); 0.05 μM A485 (6387, Tocris); 2 μM RL5a (SML2187, Sigma-Aldrich); and 2 μM Etoposide (E55500, Research Products International). Indicated compounds were added individually from day 15 to day 27 with indicated concentration.
(§1) The beta cell clusters were dissociated using TrypLE™ Express into single cells. Cells were fixed with 4% PFA for 10 min and followed by permeabilization at −20° C. with cold methanol for 10 min. Primary antibodies were added at a dilution of 1:100 in autoMACs Rinsing Solution (Cat. No. 130-091-222, Miltenyi Biotec) containing 0.5% BSA at 4° C. for 1 hour. Secondary antibodies were added at a dilution of 1:500 at room temperature for 1 hour. The cells were filtered with BD Falcon 12×75 mm tube with cell strainer cap (Cat. No. 352235, BD) and subsequently analyzed by flow cytometer. Data were analyzed using Flowjo software. Negative controls were performed by only adding secondary antibodies.
Aphidicolin (APH), a DNA polymerase inhibitor, was used to inhibit DNA replication (Koundrioukoff et al., 2013). […] The insulin expressing cells were evenly distributed in the islet-like clusters with high percentage indicated by the expression of GFP, whereas some parts of the clusters in control remained GFP negative (FIG. 1D).

[1] = system: stem cell derived beta cells; assay: Stability of beta cell identity in long-term culture after removal of compound at day 27; format: cell-based, human; settings: additional 30 days of culture (day 60)
Experimental: as §1
With APH, a high proportion of cells in the islet-like clusters were positive for C-peptide and NKX6.1, a transcription factor for maintaining the beta cell identity and functional maturation (Schaffer et al., 2013). […] Beta cells were cultured for additional 7 days until about day 34 and 30 days until about day 60 upon removal of these compounds at day 27. […] In contrast, in APH treated cells, there was no decrease in C-peptide or NKX6.1 on day 34 (FIG. 5A). […] After further culturing of the cells for extra 30 days, very few of cells in control group remained GFP expression and were positive for C-peptide.
The ability of other DNA replication inhibitors to stabilize the beta cell identity was investigated. The expressions of GFP were maintained after releasing cells from these inhibitors for 7 days until day 34. With additional 30 days of culture, the expressions of GFP were reduced in all conditions at certain levels, but the cells treated with Cis and Eto expressed higher GFP than the cells treated with APH compared to the other conditions (FIG. 5E, FIG. 5F).

Row | Compound | effectiveness to induce differentiation of pancreatic progenitors to C-peptide positive cells, comparison within panel (pancreatic progenitors) | percentage / number of C-peptide positive cells compared to control (pancreatic progenitors) | expressions of GFP (insulin) [1]
1 | RL5a | less effective | failed to increase | 
2 | CNC(=O)Nc1ccc2c(c1)CC[C@@]21OC(=O)N(CC(=O)N(Cc2ccc(F)cc2)[C@@H](C)C(F)(F)F)C1=O [P300 inhibitor] |  | no significant increase | 
3 | O=C1NC(=O)c2c1c1c3ccccc3[nH]c1c1[nH]c3cc(Br)ccc3c21 [CDK4] | less effective |  | 
4 | N.N.[Cl][Pt][Cl] [cisplatin, Cisplatin] | most effective |  | higher GFP
5 | COc1cc([C@@H]2c3cc4c(cc3[C@@H](O[C@@H]3O[C@@H]5CO[C@@H](C)O[C@H]5[C@H](O)[C@H]3O)[C@H]3COC(=O)[C@H]23)OCO4)cc(OC)c1O [Etoposide] | most effective |  | higher GFP
